According to PMC4454674, “Functional Coupling of Duplex Translocation to DNA Cleavage in a Type I Restriction Enzyme” (PLoS ONE, 2015):

Target: T1, EcoR124I (HsdR reconstituted with HsdS-HsdM2 methylase) (Escherichia coli, UniProt P10486)
T1 construct: holoenzyme reconstituted from purified HsdR (pTrcR124) and EcoR124I methylase HsdS-HsdM2 (pJS4M, JM109(DE3)), on plasmid DNA with one site; with Type I restriction enzyme EcoR124I/EcoR124II methylase subunit; Type I restriction enzyme EcoR124I specificity subunit
T1 sequence (P10486 1-1038): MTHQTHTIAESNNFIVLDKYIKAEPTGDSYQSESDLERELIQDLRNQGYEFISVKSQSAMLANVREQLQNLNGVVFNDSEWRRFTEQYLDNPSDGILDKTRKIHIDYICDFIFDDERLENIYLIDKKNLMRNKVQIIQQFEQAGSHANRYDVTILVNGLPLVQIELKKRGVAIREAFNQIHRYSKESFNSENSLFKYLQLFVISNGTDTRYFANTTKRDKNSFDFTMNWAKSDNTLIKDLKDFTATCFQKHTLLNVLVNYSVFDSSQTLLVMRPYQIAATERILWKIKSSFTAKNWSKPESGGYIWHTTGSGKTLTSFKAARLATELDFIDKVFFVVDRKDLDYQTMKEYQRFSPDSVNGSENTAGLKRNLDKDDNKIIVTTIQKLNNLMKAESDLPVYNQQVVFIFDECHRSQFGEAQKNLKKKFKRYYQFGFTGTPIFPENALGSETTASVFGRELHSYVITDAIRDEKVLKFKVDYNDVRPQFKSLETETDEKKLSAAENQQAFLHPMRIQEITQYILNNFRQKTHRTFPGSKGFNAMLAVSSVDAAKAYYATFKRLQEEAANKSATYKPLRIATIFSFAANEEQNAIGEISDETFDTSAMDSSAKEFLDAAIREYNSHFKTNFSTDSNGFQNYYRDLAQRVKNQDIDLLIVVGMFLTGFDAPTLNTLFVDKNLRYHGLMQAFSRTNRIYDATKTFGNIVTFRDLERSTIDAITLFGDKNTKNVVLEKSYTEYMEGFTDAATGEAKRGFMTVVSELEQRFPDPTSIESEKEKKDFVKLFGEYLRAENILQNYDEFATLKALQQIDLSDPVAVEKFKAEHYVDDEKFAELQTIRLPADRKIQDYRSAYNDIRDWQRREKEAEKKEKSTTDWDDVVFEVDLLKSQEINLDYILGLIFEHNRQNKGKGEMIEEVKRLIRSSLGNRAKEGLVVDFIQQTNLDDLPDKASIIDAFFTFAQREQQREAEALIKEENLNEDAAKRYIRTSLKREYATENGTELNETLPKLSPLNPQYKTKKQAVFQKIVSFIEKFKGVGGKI
T1 sequence (P10485 1-404 partner): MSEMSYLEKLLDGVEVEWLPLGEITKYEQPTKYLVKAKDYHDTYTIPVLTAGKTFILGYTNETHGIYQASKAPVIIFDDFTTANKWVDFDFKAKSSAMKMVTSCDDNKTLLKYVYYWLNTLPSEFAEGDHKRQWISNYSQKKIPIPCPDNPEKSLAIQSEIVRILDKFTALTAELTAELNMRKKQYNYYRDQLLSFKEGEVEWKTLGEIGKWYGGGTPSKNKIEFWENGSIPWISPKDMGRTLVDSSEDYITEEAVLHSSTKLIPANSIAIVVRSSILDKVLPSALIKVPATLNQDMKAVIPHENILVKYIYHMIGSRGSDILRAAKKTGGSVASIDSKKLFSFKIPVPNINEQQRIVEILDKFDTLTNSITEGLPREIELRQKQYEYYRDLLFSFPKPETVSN
T1 sequence (P10484 1-520 partner): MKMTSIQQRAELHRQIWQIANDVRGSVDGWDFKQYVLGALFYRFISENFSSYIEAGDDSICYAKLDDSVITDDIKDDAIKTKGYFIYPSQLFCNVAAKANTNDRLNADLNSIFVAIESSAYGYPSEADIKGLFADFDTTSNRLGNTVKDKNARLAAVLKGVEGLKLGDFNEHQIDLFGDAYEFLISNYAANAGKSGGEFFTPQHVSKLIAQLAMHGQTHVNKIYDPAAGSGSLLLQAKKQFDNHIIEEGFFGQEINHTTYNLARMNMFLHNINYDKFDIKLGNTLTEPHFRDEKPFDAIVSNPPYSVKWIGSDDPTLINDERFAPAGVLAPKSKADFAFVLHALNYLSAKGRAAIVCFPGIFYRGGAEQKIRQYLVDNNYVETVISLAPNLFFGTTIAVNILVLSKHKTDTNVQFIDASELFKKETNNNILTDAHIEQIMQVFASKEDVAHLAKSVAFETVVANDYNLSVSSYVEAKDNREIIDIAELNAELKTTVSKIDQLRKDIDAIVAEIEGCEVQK
Assay: DNA-dependent ATPase, gamma-32P-ATP with TLC
Assay type: biochemical
Details: 2 mM ATP; 15 nM methylase, 90 nM HsdR, 90 nM plasmid DNA; 10 mM MgCl2; pH 7.9; 37 C; turnover only; gamma-32P-ATP tracer

**Q.** Nc1ncnc2c1ncn2[C@@H]1O[C@H](COP(=O)(O)OP(=O)(O)OP(=O)(O)O)[C@@H](O)[C@H]1O [ATP] was tested. Which “DNA-dependent ATPase, gamma-32P-ATP with TLC” value did it give?
**A.** The results for the WT enzyme reproduce its previously reported ATPase activity
